Measured values as given in the CheMixHub viscosity set.
± gives the uncertainty stated by the source.

Assay: xn = mol fraction of the nth substance listed
Details: 101 kPa

CCCC[n+]1ccc(C)cc1.[Cl][Al-]([Cl])([Cl])[Cl] + Cc1ccccc1
x2 = 0.38
Details	viscosity [mPa·s]
298.15 K	13.8 ± 0.6
303.15 K	12.8 ± 0.6
308.15 K	10.8 ± 0.5
313.15 K	9.4 ± 0.4
318.15 K	8.5 ± 0.4
323.15 K	7.6 ± 0.3

CCOC(C)=O + Cc1ccccc1
viscosity [mPa·s]
Details	298.15 K	308.15 K
x1 = 0.045	0.538 ± 0.005	0.49 ± 0.004
x1 = 0.1	0.534 ± 0.006	–
x1 = 0.1501	0.514 ± 0.004	0.472 ± 0.004
x1 = 0.21	0.512 ± 0.005	–
x1 = 0.2483	0.495 ± 0.004	0.457 ± 0.004
x1 = 0.31	0.506 ± 0.005	–
x1 = 0.3517	0.478 ± 0.004	0.443 ± 0.004
x1 = 0.41	0.484 ± 0.005	–
x1 = 0.4469	0.464 ± 0.004	0.431 ± 0.004
x1 = 0.4912	0.459 ± 0.004	0.426 ± 0.004
x1 = 0.51	0.482 ± 0.005	–
x1 = 0.5503	0.452 ± 0.004	0.42 ± 0.004
x1 = 0.61	0.478 ± 0.005	–
x1 = 0.6489	0.443 ± 0.004	0.411 ± 0.004
x1 = 0.71	0.455 ± 0.005	–
x1 = 0.749	0.436 ± 0.004	0.403 ± 0.004
x1 = 0.81	0.445 ± 0.005	–
x1 = 0.8507	0.431 ± 0.004	0.395 ± 0.004
x1 = 0.9	0.428 ± 0.005	–
x1 = 0.9432	0.429 ± 0.004	0.39 ± 0.004
x2 = 0.1513	0.466 ± 0.006	–
x2 = 0.442	0.481 ± 0.007	–
x2 = 0.7034	0.509 ± 0.007	–

COc1ccc(C=O)cc1 + Cc1ccccc1
viscosity [mPa·s]
Details	x1 = 0.0899	x1 = 0.1818	x1 = 0.2759	x1 = 0.3721	x1 = 0.4706	x1 = 0.5714	x1 = 0.6747	x1 = 0.7805	x1 = 0.8889
303.15 K	0.5703 ± 0.16	0.6449 ± 0.18	0.7185 ± 0.19	0.9019 ± 0.23	1.099 ± 0.28	1.356 ± 0.33	1.551 ± 0.38	2.61 ± 0.61	2.857 ± 0.66
308.15 K	0.5414 ± 0.15	0.6128 ± 0.17	0.6929 ± 0.19	0.8502 ± 0.22	1.018 ± 0.26	1.258 ± 0.31	1.388 ± 0.34	2.218 ± 0.52	2.505 ± 0.59
313.15 K	0.512 ± 0.15	0.5751 ± 0.16	0.6448 ± 0.18	0.7809 ± 0.21	0.9332 ± 0.24	1.122 ± 0.28	1.259 ± 0.31	2.011 ± 0.48	2.165 ± 0.51
318.15 K	0.4586 ± 0.13	0.5216 ± 0.15	0.5862 ± 0.16	0.7004 ± 0.19	0.8327 ± 0.22	0.9898 ± 0.25	1.098 ± 0.28	1.65 ± 0.4	1.825 ± 0.44

COc1ccc(C=O)cc1 + Cc1ccccc1O
308.15 K
Details	viscosity [mPa·s]
x1 = 0.7753	3.815 ± 0.029
x1 = 0.8859	3.475 ± 0.026
